Read-outs that look alike come from different tables or passages of the source.
How the values were obtained:
[1] = Acute toxicity (oral, 7 days observation); type: in vivo; conditions: mouse, in vivo, read-out: Acute toxicity, 50% lethal dose, LD50 (values with Δ marks)
Description: (§1) Next, several tests for determining the pharmacological properties, in that acute toxicity, anti-pyretic activity, analgesic activity and anti-inflammatory activity of the present 1,1,3,5-substituted biuret compounds of the formula (1) were conducted and the test results are shown in Table (2). In the tests, each compounds to be tested was used as a suspension in 0.25% carboxymethylcellulose solution. Methods for testing are explained as follows:
(§2) The ddy strain of male mice (body weight, 20-25 g) were used as test animals. The mice were fasted overnight and the compound to be tested was administered orally. […] The lethal dose (mg/kg, body weight) of the test compound was determined in connection with the death number of mice/the number of mice tested. In Table 2, the values indicated with Δ marks are 50% lethal dose, LD50 (mg/kg, body weight).

[2] = test system: Wistar strain of male rats; experiment: Anti-pyretic activity (dry-yeast induced fever); type: in vivo, rat (Wistar strain; conditions: oral, up to 4 hours after administration, dose not given
Description: as §1
According to the method reported by Tanabe [Folia Pharmacologia Japonica, Vol. 73, pp. 803 (1977)], the Wistar strain of male rats (150-180 g body weight) were used as test animals. The rats were fasted overnight, and 1 ml/100 g (body weight) of 10% dry-yeast suspension were subcutaneously injected on the back of the rats. Five hours after the injection, the test compound was administered orally, then the body temperature of the rat was measured at time sequences. Anti-pyretic activity of the test compound was determined as the FI (febril index) by integrating pyrogenetic curve up to 4 hours after the administration of the test compound with time, and indicated as inhibitory ratio (%) shown by the following formula, [formula]

ddy strain of male mice [3] = experiment: Analgesic activity, acetic acid-induced stretching method; type: in vivo, mouse (ddy strain; conditions: Mus musculus; for ED50: read-out: Analgesic activity, acetic acid-induced stretching method, 50% effective dose, ED50 (values with Δ marks)
Description: as §1
According to the method reported by Koster et al., [Fed. Proc., Vol. 18, pp. 412 (1959)], the ddy strain of male mice (body weight, 20-25 g) were used as test animals. The mice were fasted overnight, 100 mg/kg body weight of the test compound was administered orally, then 1 hour after the administration, 0.2 ml of 0.7% acetic acid solution was injected intraperitoneally. The acetic acid-induced stretching symptom of mouse was observed. Analgesic activity of the test compound was calculated as the inhibitory ratio (%). In Table 2, the values in Parentheses show the data obtained from the test by using the dosage other than 100 mg/kg body weight. Further, the values indicated with Δ marks show 50% effective dose, ED50 (mg/kg body weight).

ddy strain of male mice [4] = experiment: Analgesic activity, Haffner method; type: in vivo, mouse (ddy strain; conditions: with threshold morphine hydrochloride s.c.; for Analgesic activity, Haffner method, 50% effective dose, ED50 (values with Δ marks): oral, range in parentheses
Description: as §1
According to the modified method reported by Fujimura et al., [Bulletin of the Institute for Chemical Research, Kyoto University, No. 25, pp. 36 (1951)], the ddy strain of male mice (body weight, 20-25 g) were used as test animals. The mice were fasted overnight, 100 mg/kg body weight of the test compound was administered orally, then 45 minutes after the administration, the threshold amount (1.5-2.5 mg/kg body weight) of morphine hydrochloride was injected subcutaneously. Then 1-hour pain reaction of the mouse caused by a clamp was observed. Analgesic activity of the test compound was calculated as the inhibitory ratio (%). In Table 2, the values in parentheses show the data obtained from the test by using the dosage other than 100 mg/kg body weight. Further, the values indicated with Δ marks show 50% effective dose, ED50 (mg/kg body weight).

[5] = test system: Wistar strain of male rats; experiment: Anti-inflammatory activity, acute carrageenin-induced inflammatory test; type: in vivo, rat (Wistar strain; conditions: Rattus norvegicus
Description: as §1
According to the method of acute carrageenin-induced inflammatory test [Folia Pharmacologia Japonica, Vol. 56, pp. 575 (1960)], the Wistar strain of male rats (body weight, 150-180 g) were used as test animals. The rats were fasted overnight, 100 mg/kg body weight of the test compound was administered orally, then 1 hour after the administration, 0.1 ml of 1% carrageenin solution, as the inflammation inducing agent, was injected subcutaneously to the hindpaw of the rat and the volume of the hindpaw was measured at time sequences. Anti-inflammatory activity of the test compound was calculated as inflammation inhibitory ratio (%) at 3 hours after the injection of the inflammation inducing agent.

ddy strain of male mice [6] = experiment: Acute toxicity (oral, 7 days observation); type: in vivo; conditions: oral, mice, 7 days
Description: as §1, §2

[7] = po, 3 h, read-out: Anti-inflammatory activity, inflammation inhibitory ratio
[8] = po, 2 h, read-out: Anti-inflammatory activity, inflammation inhibitory ratio (2 hours value)
[9] = po, read-out: Analgesic activity, acetic acid-induced stretching method, inhibitory ratio
[10] = 100 mg/kg oral, rats, 2 hours value, read-out: Anti-inflammatory activity, inflammation inhibitory ratio (2 hours value)
[11] = 100 mg/kg oral, rats, 3 hours after carrageenin, read-out: Anti-inflammatory activity, inflammation inhibitory ratio

Row | SMILES | LD50 at 168 h ([1]; oral, mice, 7 days) | Anti-pyretic activity, inhibitory ratio of febril index (FI) [2] | Analgesic activity, Haffner method, 50% effective dose, ED50 (values with Δ marks) (ddy strain of male mice [4]) | inhibition in vivo at 100 mg/kg [5, 7] | Analgesic activity, Haffner method, inhibitory ratio (ddy strain of male mice [4]; 100 mg/kg oral) | inhibition in vivo at 100 mg/kg (ddy strain of male mice [3]; [9]) | other results
1 | CN(C)C(=O)N(C)C(=O)Nc1ccc(Cl)cc1 [Compound No. 7, 1,1,3-trimethyl-5-p-chlorophenylbiuret] | 1200 mg/kg | 84% | 20(11-35) mg/kg | 47% |  |  | ED50 (ddy strain of male mice [3]; po): 12 mg/kg
2 | CN(C)C(=O)N(C)C(=O)Nc1ccc(Br)cc1 [Compound No. 11, 1,1,3-Trimethyl-5-(4-bromophenyl)biuret] | 1350 mg/kg | 103% | 74(49-113) mg/kg |  |  |  | ED50 (ddy strain of male mice [3]; po): 60 mg/kg; inhibition in vivo at 100 mg/kg [5, 8]: 48%
3 | CN(C)C(=O)N(C)C(=O)NC1CCCCC1 [compound 29, 1,1,3-Trimethyl-5-cychlohexylbiuret] |  |  |  |  | 25% |  | LD50 at 168 h ([1]; po): 1450 mg/kg; inhibition in vivo at 200 mg/kg (ddy strain of male mice [3]; [9]): 87.5%; inhibition in vivo at 100 mg/kg [5, 10]: 24%
4 | CN(C)C(=O)N(C)C(=O)Nc1cccc(Cl)c1 [compound 6, 1,1,3-Trimethyl-5-(3-chlorophenyl)biuret] | 1480 mg/kg | 43% |  |  |  | 62.5% | Analgesic activity, Haffner method, inhibitory ratio (ddy strain of male mice [4]; 200 mg/kg oral): 75%; inhibition in vivo at 100 mg/kg [5, 8]: 30%
5 | CCN(C)C(=O)N(C)C(=O)Nc1ccccc1 [compound 33, 1-Ethyl-1,3-dimethyl-5-phenylbiuret] | 1290 mg/kg | 49% |  |  |  |  | inhibition in vivo at 80 mg/kg (ddy strain of male mice [3]; [9]): 50%; inhibition in vivo at 100 mg/kg [5, 11]: 34%
6 | Cc1ccccc1NC(=O)N(C)C(=O)N(C)C [compound 20, 1,1,3-Trimethyl-5-(2-methylphenyl)biuret] | 1000 mg/kg | 41% |  | 29% | 50% | 37.5% | 
7 | CN(C)C(=O)N(C)C(=O)Nc1ccc([N+](=O)[O-])cc1 [compound 15, 1,1,3-Trimethyl-5-(4-nitrophenyl)biuret] |  | 26% |  | 32% | 50% |  | Acute toxicity, death number of mice/number of mice tested (ddy strain of male mice [6]; 500 mg/kg): 2/4; inhibition in vivo at 100 mg/kg (ddy strain of male mice [3]; 100 mg/kg oral, mice, read-out: Analgesic activity, acetic acid-induced stretching method, inhibitory ratio): 100%
8 | CN(C)C(=O)N(C)C(=O)Nc1ccccc1Cl [compound 5, 1,1,3-Trimethyl-5-(2-chlorophenyl)biuret] |  | 66% |  |  | 37.5% | 50% | Acute toxicity, death number of mice/number of mice tested (ddy strain of male mice [6]; 2000 mg/kg): 0/4; inhibition in vivo at 100 mg/kg [5, 11]: 38%
9 | CN(C)C(=O)N(C)C(=O)Nc1c(F)c(F)cc(F)c1F [compound 4, 1,1,3-Trimethyl-5-(2,3,5,6-tetrafluorophenyl)-biuret] |  | 33% |  | 24% | 50% | 87.5% | Acute toxicity, death number of mice/number of mice tested (ddy strain of male mice [6]; 500 mg/kg): 0/4; Acute toxicity, death number of mice/number of mice tested (ddy strain of male mice [6]; 1000 mg/kg): 4/4
10 | CN(C)C(=O)N(C)C(=O)Nc1cccc(C(F)(F)F)c1 [compound 13, 1,1,3-Trimethyl-5-(3-trifluoromethylphenyl)biuret] |  | 62% | 64(37-112) mg/kg |  |  | 37.5% | Acute toxicity, death number of mice/number of mice tested (ddy strain of male mice [6]; 1000 mg/kg): 0/4; Acute toxicity, death number of mice/number of mice tested (ddy strain of male mice [6]; 2000 mg/kg): 4/4; inhibition in vivo at 100 mg/kg [5, 8]: 32%
11 | Cc1ccc(NC(=O)N(C)C(=O)N(C)C)cc1 [Compound No. 22, 1,1,3-Trimethyl-5-(4-methylphenyl)biuret] |  | 52% | 80(42-152) mg/kg |  |  |  | Acute toxicity, death number of mice/number of mice tested (ddy strain of male mice [6]; 2000 mg/kg): 0/4; ED50 (ddy strain of male mice [3]; po): 33 mg/kg; inhibition in vivo at 100 mg/kg [5, 8]: 23%
12 | COc1ccccc1NC(=O)N(C)C(=O)N(C)C [compound 16, 1,1,3-Trimethyl-5-(2-methoxyphenyl)biuret] |  | 13% |  |  | 25% | 37.5% | Acute toxicity, death number of mice/number of mice tested (ddy strain of male mice [6]; 1000 mg/kg): 0/4; Acute toxicity, death number of mice/number of mice tested (ddy strain of male mice [6]; 2000 mg/kg): 2/4; inhibition in vivo at 100 mg/kg [5, 10]: 35%
13 | CN(C)C(=O)N(C)C(=O)Nc1c(Cl)cccc1Cl [compound 9, 1,1,3-Trimethyl-5-(2,6-dichlorophenyl)biuret] | 1100 mg/kg | 29% |  |  | 50% | 50% | inhibition in vivo at 100 mg/kg [5, 11]: 25%
14 | Cc1cccc(C)c1NC(=O)N(C)C(=O)N(C)C [compound 24, 1,1,3-Trimethyl-5-(2,6-dimethylphenyl)biuret] | 595 mg/kg | 69% |  |  | 37.5% | 75% | 
15 | CN(C)C(=O)N(C)C(=O)Nc1ccc(F)cc1 [Compound No. 3, 1,1,3-Trimethyl-5-(4-fluorophenyl)biuret] | 930 mg/kg | 61% |  |  | 62.5% | 87.5% | inhibition in vivo at 100 mg/kg [5, 11]: 37%
16 | COc1ccc(NC(=O)N(C)C(=O)N(C)C)cc1 [Compound No. 17, 1,1,3-Trimethyl-5-(4-methoxyphenyl)biuret] | 1800 mg/kg | 75% | 42 to 153 mg/kg | 33% |  |  | ED50 (ddy strain of male mice [3]; po): 39 mg/kg
17 | CN(C)C(=O)N(C)C(=O)Nc1ccccc1 [Compound No. 1, 1,1,3-Trimethyl-5-phenylbiuret] | 1710 mg/kg | 80% | 68(52-88) mg/kg | 59% |  |  | ED50 (ddy strain of male mice [3]; po): 75 mg/kg
